pIC50: −log10 of the molar value. Values belong to the compound of their own block, whether it stands above or below them.
What was measured:
Type in all cases: biochemical
[1] = biological target: human JAK1 (a.a. 837-1142) (Homo sapiens, UniProt P23458); assay: In vitro JAK kinase assay (HTRF, phosphorylation of a biotinylated peptide), JAK1; settings: measured at 1 mM ATP
Outline: (§1)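 N-terminal His-tagged catalytic domains, baculovirus-expressed in insect cells, phosphorylated a biotinylated peptide for 1 hr at room temperature. EDTA stop was followed by SA-APC and Eu-Py20 antibody for 40 minutes, with phosphopeptide read by HTRF.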

[2] = biological target: human JAK1 (a.a. 837-1142); assay: as above; settings: ratio of JAK2 IC50 to JAK1 IC50, measured at 1 mM ATP
Outline: as §1

Jak2 (a.a. 828-1132) = Jak2 (a.a. 828-1132) (Homo sapiens (Human), UniProt O60674); assay: In vitro JAK kinase assay (HTRF, phosphorylation of a biotinylated peptide), JAK2; settings: measured at 1 mM ATP
Outline: as §1

Jak2 (a.a. 828-1132), sequence (O60674 828-1132): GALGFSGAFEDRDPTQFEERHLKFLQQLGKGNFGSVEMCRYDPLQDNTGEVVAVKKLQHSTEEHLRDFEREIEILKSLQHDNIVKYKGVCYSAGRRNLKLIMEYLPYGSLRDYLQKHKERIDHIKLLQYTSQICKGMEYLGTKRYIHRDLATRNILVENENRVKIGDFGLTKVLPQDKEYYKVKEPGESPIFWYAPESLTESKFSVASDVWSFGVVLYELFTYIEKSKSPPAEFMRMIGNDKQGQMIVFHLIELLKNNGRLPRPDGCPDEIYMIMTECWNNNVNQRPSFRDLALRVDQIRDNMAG

SMILES: COc1cscc1C(=O)N1CCC(N2CC(CC#N)(n3cc(-c4ncnc5[nH]ccc45)cn3)C2)CC1 [Example 72, {1-{1-[(4-methoxy-3-thienyl)carbonyl]piperidin-4-yl}-3-[4-(7H-pyrrolo[2,3-d]pyrimidin-4-yl)-1H-pyrazol-1-yl]azetidin-3-yl}acetonitrile]
- pIC50 [1]: ≥ 8.30
- IC50 Ratio JAK2/JAK1 [2]: 6.6
- pIC50 (Jak2 (a.a. 828-1132)): ≥ 8.00

SMILES: Cc1cc(C(=O)N2CCC(N3CC(CC#N)(n4cc(-c5ncnc6[nH]ccc56)cn4)C3)CC2)cs1 [Example 73, {1-{1-[(5-methyl-3-thienyl)carbonyl]piperidin-4-yl}-3-[4-(7H-pyrrolo[2,3-d]pyrimidin-4-yl)-1H-pyrazol-1-yl]azetidin-3-yl}acetonitrile]
- pIC50 [1]: ≥ 8.30
- IC50 Ratio JAK2/JAK1 [2]: 4.2
- pIC50 (Jak2 (a.a. 828-1132)): ≥ 8.00

SMILES: COc1c(C(=O)N2CCC(N3CC(CC#N)(n4cc(-c5ncnc6[nH]ccc56)cn4)C3)CC2)csc1Cl [Example 74, {1-{1-[(5-chloro-4-methoxy-3-thienyl)carbonyl]piperidin-4-yl}-3-[4-(7H-pyrrolo[2,3-d]pyrimidin-4-yl)-1H-pyrazol-1-yl]azetidin-3-yl}acetonitrile]
- pIC50 [1]: ≥ 8.30
- IC50 Ratio JAK2/JAK1 [2]: 3.8
- pIC50 (Jak2 (a.a. 828-1132)): 7.30 to 8.00

SMILES: N#CCC1(n2cc(-c3ncnc4[nH]ccc34)cn2)CN(C2CCN(C(=O)c3ccsc3Br)CC2)C1 [Example 75, {1-{1-[(2-bromo-3-thienyl)carbonyl]piperidin-4-yl}-3-[4-(7H-pyrrolo[2,3-d]pyrimidin-4-yl)-1H-pyrazol-1-yl]azetidin-3-yl}acetonitrile]
- pIC50 [1]: ≥ 8.30
- IC50 Ratio JAK2/JAK1 [2]: 3.4
- pIC50 (Jak2 (a.a. 828-1132)): ≥ 8.00

SMILES: COc1ccsc1C(=O)N1CCC(N2CC(CC#N)(n3cc(-c4ncnc5[nH]ccc45)cn3)C2)CC1 [Example 81, {1-{1-[(3-methoxy-2-thienyl)carbonyl]piperidin-4-yl}-3-[4-(7H-pyrrolo[2,3-d]pyrimidin-4-yl)-1H-pyrazol-1-yl]azetidin-3-yl}acetonitrile]
- pIC50 [1]: ≥ 8.30
- IC50 Ratio JAK2/JAK1 [2]: 4.2
- pIC50 (Jak2 (a.a. 828-1132)): ≥ 8.00

SMILES: N#CCC1(n2cc(-c3ncnc4[nH]ccc34)cn2)CN(C2CCN(C(=O)c3ccc(C(F)(F)F)cc3F)CC2)C1 [Example 82, {1-{1-[2-fluoro-4-(trifluoromethyl)benzoyl]piperidin-4-yl}-3-[4-(7H-pyrrolo[2,3-d]pyrimidin-4-yl)-1H-pyrazol-1-yl]azetidin-3-yl}acetonitrile]
- pIC50 [1]: ≥ 8.30
- IC50 Ratio JAK2/JAK1 [2]: 5.3
- pIC50 (Jak2 (a.a. 828-1132)): ≥ 8.00

SMILES: N#CCC1(n2cc(-c3ncnc4[nH]ccc34)cn2)CN(C2CCN(C(=O)c3c(F)cc(C#N)cc3F)CC2)C1 [Example 83, 4-[(4-{3-(cyanomethyl)-3-[4-(7H-pyrrolo[2,3-d]pyrimidin-4-yl)-1H-pyrazol-1-yl]azetidin-1-yl}piperidin-1-yl)carbonyl]-3,5-difluorobenzonitrile]
- pIC50 [1]: ≥ 8.30
- IC50 Ratio JAK2/JAK1 [2]: 5.8
- pIC50 (Jak2 (a.a. 828-1132)): 7.30 to 8.00

SMILES: N#CCC1(n2cc(-c3ncnc4[nH]ccc34)cn2)CN(C2CCN(C(=O)c3cncc(C(F)(F)F)n3)CC2)C1 [Example 86, [3-[4-(7H-pyrrolo[2,3-d]pyrimidin-4-yl)-1H-pyrazol-1-yl]-1-(1-{[6-(trifluoromethyl)pyrazin-2-yl]carbonyl}piperidin-4-yl)azetidin-3-yl]acetonitrile]
- pIC50 [1]: ≥ 8.30
- IC50 Ratio JAK2/JAK1 [2]: 19.4
- pIC50 (Jak2 (a.a. 828-1132)): 7.00 to 7.30

SMILES: N#CCC1(n2cc(-c3ncnc4[nH]ccc34)cn2)CN(C2CCN(C(=O)c3cccc4ccccc34)CC2)C1 [Example 87, {1-[1-(1-naphthoyl)piperidin-4-yl]-3-[4-(7H-pyrrolo[2,3-d]pyrimidin-4-yl)-1H-pyrazol-1-yl]azetidin-3-yl}acetonitrile]
- pIC50 [1]: ≥ 8.30
- IC50 Ratio JAK2/JAK1 [2]: 0.3
- pIC50 (Jak2 (a.a. 828-1132)): ≥ 8.00

SMILES: N#CCC1(n2cc(-c3ncnc4[nH]ccc34)cn2)CN(C2CCN(C(=O)c3cnc4ccccc4c3)CC2)C1 [Example 88, {3-[4-(7H-pyrrolo[2,3-d]pyrimidin-4-yl)-1H-pyrazol-1-yl]-1-[1-(quinolin-3-ylcarbonyl)piperidin-4-yl]azetidin-3-yl}acetonitrile]
- pIC50 [1]: 7.70 to 8.30
- IC50 Ratio JAK2/JAK1 [2]: 0.9
- pIC50 (Jak2 (a.a. 828-1132)): ≥ 8.00

SMILES: N#CCC1(n2cc(-c3ncnc4[nH]ccc34)cn2)CN(C2CCN(C(=O)c3ccc4ncccc4c3)CC2)C1 [Example 89, {3-[4-(7H-pyrrolo[2,3-d]pyrimidin-4-yl)-1H-pyrazol-1-yl]-1-[1-(quinolin-6-ylcarbonyl)piperidin-4-yl]azetidin-3-yl}acetonitrile]
- pIC50 [1]: ≥ 8.30
- IC50 Ratio JAK2/JAK1 [2]: 2.6
- pIC50 (Jak2 (a.a. 828-1132)): ≥ 8.00

SMILES: N#CCC1(n2cc(-c3ncnc4[nH]ccc34)cn2)CN(C2CCN(C(=O)c3cc4ccc(C(F)(F)F)cc4s3)CC2)C1 [Example 94, [3-[4-(7H-pyrrolo[2,3-d]pyrimidin-4-yl)-1H-pyrazol-1-yl]-1-(1-{[6-(trifluoromethyl)-1-benzothien-2-yl]carbonyl}piperidin-4-yl)azetidin-3-yl]acetonitrile]
- pIC50 [1]: 7.70 to 8.30
- IC50 Ratio JAK2/JAK1 [2]: 1.0
- pIC50 (Jak2 (a.a. 828-1132)): 7.30 to 8.00

SMILES: N#CCC1(n2cc(-c3ncnc4[nH]ccc34)cn2)CN(C2CCN(C(=O)c3cc4cccc(C(F)(F)F)c4s3)CC2)C1 [Example 95, [3-[4-(7H-pyrrolo[2,3-d]pyrimidin-4-yl)-1H-pyrazol-1-yl]-1-(1-{[7-(trifluoromethyl)-1-benzothien-2-yl]carbonyl}piperidin-4-yl)azetidin-3-yl]acetonitrile]
- pIC50 [1]: ≥ 8.30
- IC50 Ratio JAK2/JAK1 [2]: 2.7
- pIC50 (Jak2 (a.a. 828-1132)): ≥ 8.00

SMILES: N#CCC1(n2cc(-c3ncnc4[nH]ccc34)cn2)CN(C2CCN(C(=O)c3csc4ccccc34)CC2)C1 [Example 96, {1-[1-(1-benzothien-3-ylcarbonyl)piperidin-4-yl]-3-[4-(7H-pyrrolo[2,3-d]pyrimidin-4-yl)-1H-pyrazol-1-yl]azetidin-3-yl}acetonitrile]
- pIC50 [1]: ≥ 8.30
- IC50 Ratio JAK2/JAK1 [2]: 0.5
- pIC50 (Jak2 (a.a. 828-1132)): ≥ 8.00

Further lines, results first:

- pIC50 [1]: ≥ 8.30
- IC50 Ratio JAK2/JAK1 [2]: 5.5
- pIC50 (Jak2 (a.a. 828-1132)): ≥ 8.00
SMILES: N#CCC1(n2cc(-c3ncnc4[nH]ccc34)cn2)CN(C2CCN(C(=O)c3sccc3Cl)CC2)C1 [Example 76, {1-{1-[(3-chloro-2-thienyl)carbonyl]piperidin-4-yl}-3-[4-(7H-pyrrolo[2,3-d]pyrimidin-4-yl)-1H-pyrazol-1-yl]azetidin-3-yl}acetonitrile]

- pIC50 [1]: ≥ 8.30
- IC50 Ratio JAK2/JAK1 [2]: 5.5
- pIC50 (Jak2 (a.a. 828-1132)): ≥ 8.00
SMILES: N#CCC1(n2cc(-c3ncnc4[nH]ccc34)cn2)CN(C2CCN(C(=O)c3ccc(Cl)s3)CC2)C1 [Example 77, {1-{1-[(5-chloro-2-thienyl)carbonyl]piperidin-4-yl}-3-[4-(7H-pyrrolo[2,3-d]pyrimidin-4-yl)-1H-pyrazol-1-yl]azetidin-3-yl}acetonitrile]

- pIC50 [1]: ≥ 8.30
- IC50 Ratio JAK2/JAK1 [2]: 5.4
- pIC50 (Jak2 (a.a. 828-1132)): 7.30 to 8.00
SMILES: Cc1ccsc1C(=O)N1CCC(N2CC(CC#N)(n3cc(-c4ncnc5[nH]ccc45)cn3)C2)CC1 [Example 78, {1-{1-[(3-methyl-2-thienyl)carbonyl]piperidin-4-yl}-3-[4-(7H-pyrrolo[2,3-d]pyrimidin-4-yl)-1H-pyrazol-1-yl]azetidin-3-yl}acetonitrile]

- pIC50 [1]: ≥ 8.30
- IC50 Ratio JAK2/JAK1 [2]: 4.1
- pIC50 (Jak2 (a.a. 828-1132)): ≥ 8.00
SMILES: Cc1ccc(C(=O)N2CCC(N3CC(CC#N)(n4cc(-c5ncnc6[nH]ccc56)cn4)C3)CC2)s1 [Example 80, {1-{1-[(5-methyl-2-thienyl)carbonyl]piperidin-4-yl}-3-[4-(7H-pyrrolo[2,3-d]pyrimidin-4-yl)-1H-pyrazol-1-yl]azetidin-3-yl}acetonitrile]

- pIC50 [1]: ≥ 8.30
- IC50 Ratio JAK2/JAK1 [2]: 6.5
- pIC50 (Jak2 (a.a. 828-1132)): 7.30 to 8.00
SMILES: N#CCC1(n2cc(-c3ncnc4[nH]ccc34)cn2)CN(C2CCN(C(=O)c3ccc(O)c(Cl)c3)CC2)C1 [Example 84, {1-[1-(3-chloro-4-hydroxybenzoyl)piperidin-4-yl]-3-[4-(7H-pyrrolo[2,3-d]pyrimidin-4-yl)-1H-pyrazol-1-yl]azetidin-3-yl}acetonitrile]

- pIC50 [1]: ≥ 8.30
- IC50 Ratio JAK2/JAK1 [2]: 1.5
- pIC50 (Jak2 (a.a. 828-1132)): ≥ 8.00
SMILES: N#CCC1(n2cc(-c3ncnc4[nH]ccc34)cn2)CN(C2CCN(C(=O)c3cc4ccccc4s3)CC2)C1 [Example 90, {1-[1-(1-benzothien-2-ylcarbonyl)piperidin-4-yl]-3-[4-(7H-pyrrolo[2,3-d]pyrimidin-4-yl)-1H-pyrazol-1-yl]azetidin-3-yl}acetonitrile]

- pIC50 [1]: ≥ 8.30
- IC50 Ratio JAK2/JAK1 [2]: 1.7
- pIC50 (Jak2 (a.a. 828-1132)): ≥ 8.00
SMILES: N#CCC1(n2cc(-c3ncnc4[nH]ccc34)cn2)CN(C2CCN(C(=O)c3sc4cc(F)ccc4c3Cl)CC2)C1 [Example 91, {1-{1-[(3-chloro-6-fluoro-1-benzothien-2-yl)carbonyl]piperidin-4-yl}-3-[4-(7H-pyrrolo[2,3-d]pyrimidin-4-yl)-1H-pyrazol-1-yl]azetidin-3-yl}acetonitrile]

- pIC50 [1]: ≥ 8.30
- IC50 Ratio JAK2/JAK1 [2]: 2.8
- pIC50 (Jak2 (a.a. 828-1132)): ≥ 8.00
SMILES: N#CCC1(n2cc(-c3ncnc4[nH]ccc34)cn2)CN(C2CCN(C(=O)c3sc4cccc(F)c4c3Cl)CC2)C1 [Example 92, {1-{1-[(3-chloro-4-fluoro-1-benzothien-2-yl)carbonyl]piperidin-4-yl}-3-[4-(7H-pyrrolo[2,3-d]pyrimidin-4-yl)-1H-pyrazol-1-yl]azetidin-3-yl}acetonitrile]

- pIC50 [1]: ≥ 8.30
- IC50 Ratio JAK2/JAK1 [2]: 1.5
- pIC50 (Jak2 (a.a. 828-1132)): ≥ 8.00
SMILES: N#CCC1(n2cc(-c3ncnc4[nH]ccc34)cn2)CN(C2CCN(C(=O)c3cc4c(C(F)(F)F)cccc4s3)CC2)C1 [Example 93, [3-[4-(7H-pyrrolo[2,3-d]pyrimidin-4-yl)-1H-pyrazol-1-yl]-1-(1-{[4-(trifluoromethyl)-1-benzothien-2-yl]carbonyl}piperidin-4-yl)azetidin-3-yl]acetonitrile]
